From ChEMBL document CHEMBL1201862, “PubChem BioAssay data set” (2004)
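Method: 48-hour compound exposure of cells in 96-well plates, five concentrations, linear interpolation of endpoints. The concentration for 50% growth inhibition is given as GI50.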 Calls of active or inactive are those of the source. Cut-off read from the data, not from the text of the source: active = GI50 up to about 1.1 µM and inactive = higher.

Tests used:
Experiment in all cases: inhibition of tumour cell growth, NCI panel, 48 h
786-0 = tested on: 786-0
CCRF-CEM = tested on: CCRF-CEM
DMS-114 = tested on: DMS-114
HCT-116 = tested on: HCT-116
HOP-62 = tested on: HOP-62
K562 = tested on: K562
NCI-H460 = tested on: NCI-H460
OVCAR-8 = tested on: OVCAR-8
SF-268 = tested on: SF-268
SF-295 = tested on: SF-295
SK-MEL-28 = tested on: SK-MEL-28
SK-OV-3 = tested on: SK-OV-3
SN12C = tested on: SN12C
SR = tested on: SR
SW-620 = tested on: SW-620
TK-10 = tested on: TK-10
U-251 = tested on: U-251
UACC-62 = tested on: UACC-62
MOLT-4 = tested on: MOLT-4

Measured: GI50

COc1ccc(/C(=N\NC(=S)NN)C(c2ccc(OC)cc2)C2C(=O)Oc3ccccc32)cc1 (stereo not given)
inactive: 786-0 > 10 µM | CCRF-CEM 64.9 µM | DMS-114 14.8 µM | HCT-116 > 10 µM | HOP-62 > 10 µM | K562 > 10 µM | NCI-H460 > 10 µM | OVCAR-8 > 10 µM | SF-268 > 10 µM | SF-295 > 10 µM | SK-MEL-28 56.2 µM | SK-OV-3 > 10 µM | SN12C > 10 µM | SR 80.7 µM | SW-620 > 10 µM | TK-10 > 10 µM | U-251 > 10 µM | UACC-62 > 10 µM

C#CC(C)(C)OCCCCOc1cc(O)c2c(=O)c3ccccc3n(C)c2c1
inactive: 786-0 > 100 µM | CCRF-CEM > 100 µM | DMS-114 29.3 µM | HCT-116 > 100 µM | HOP-62 > 100 µM | K562 > 100 µM | NCI-H460 57.5 µM | OVCAR-8 > 100 µM | SF-268 > 100 µM | SF-295 > 100 µM | SK-MEL-28 > 100 µM | SK-OV-3 > 100 µM | SN12C > 100 µM | SR 89.3 µM | SW-620 > 100 µM | TK-10 > 100 µM | U-251 > 100 µM | UACC-62 > 100 µM

O=c1nc(NC(c2ccccc2)(c2ccccc2)c2ccccc2)ccn1CCCl
inactive: 786-0 18.1 µM | DMS-114 14.5 µM | HCT-116 18.8 µM | HOP-62 21.5 µM | K562 21.8 µM | MOLT-4 16.2 µM | NCI-H460 19.3 µM | OVCAR-8 16.2 µM | SF-268 17.2 µM | SF-295 20.6 µM | SK-MEL-28 15 µM | SN12C 17.9 µM | SR 20.3 µM | SW-620 24.1 µM | TK-10 27.7 µM | U-251 15.3 µM

Cc1c(C(=O)CSc2nc3ccccc3c(=O)n2-c2ccccc2)c(=O)n(-c2ccccc2)n1C
inactive: 786-0 19.9 µM | CCRF-CEM > 100 µM | DMS-114 > 100 µM | HCT-116 68.2 µM | HOP-62 31.4 µM | MOLT-4 > 100 µM | NCI-H460 37.8 µM | SF-268 > 100 µM | SF-295 28.8 µM | SK-MEL-28 99.3 µM | SK-OV-3 19.3 µM | SN12C 97.7 µM | SR 82.2 µM | SW-620 > 100 µM | TK-10 41.9 µM | U-251 22.4 µM

Nc1ncnc(NC2C=C(CO)C(O)C2O)c1[N+](=O)[O-] (stereo not given)
inactive: 786-0 > 100 µM | CCRF-CEM > 100 µM | DMS-114 > 100 µM | HCT-116 32.9 µM | HOP-62 > 100 µM | K562 > 100 µM | MOLT-4 > 100 µM | NCI-H460 > 100 µM | OVCAR-8 > 100 µM | SF-268 > 100 µM | SF-295 > 100 µM | SK-MEL-28 > 100 µM | SK-OV-3 > 100 µM | SN12C > 100 µM | SR > 100 µM | SW-620 28.1 µM | TK-10 > 100 µM | U-251 > 100 µM | UACC-62 > 100 µM

CC(=O)OCCOCNC(=S)N/N=C(\C)c1cnccn1
inactive: 786-0 33.4 µM | CCRF-CEM 13 µM | DMS-114 16.8 µM | HCT-116 34.3 µM | HOP-62 27.4 µM | K562 30.5 µM | MOLT-4 14.1 µM | NCI-H460 20.9 µM | OVCAR-8 30.1 µM | SF-268 17.5 µM | SF-295 36.3 µM | SK-MEL-28 42.5 µM | SK-OV-3 46.5 µM | SN12C 29.7 µM | SR 18.4 µM | SW-620 23.9 µM | TK-10 28.4 µM | U-251 29.6 µM | UACC-62 13.5 µM

Cc1cc(C)nc(/C(=N\NC(N)=O)C(=O)Nc2nc3ccc(C)cc3s2)c1
inactive: 786-0 > 100 µM | CCRF-CEM > 48.1 µM | DMS-114 > 48.5 µM | HCT-116 > 56.5 µM | HOP-62 > 100 µM | K562 > 61.4 µM | MOLT-4 > 100 µM | NCI-H460 > 100 µM | OVCAR-8 > 100 µM | SF-268 > 100 µM | SF-295 > 100 µM | SK-MEL-28 > 100 µM | SK-OV-3 > 100 µM | SN12C > 100 µM | SR 19.5 µM | SW-620 > 100 µM | TK-10 > 100 µM | U-251 > 100 µM | UACC-62 > 100 µM

CCC1=C(C)/C(=C/c2[nH]c(C(Br)Br)c(CC)c2C)N=C1C(Br)Br
inactive: 786-0 63.2 µM | CCRF-CEM 13.6 µM | DMS-114 19 µM | HCT-116 23.8 µM | HOP-62 28.6 µM | K562 24.2 µM | MOLT-4 5.93 µM | NCI-H460 26.4 µM | OVCAR-8 26.6 µM | SF-268 73.3 µM | SF-295 26.1 µM | SK-MEL-28 45.4 µM | SK-OV-3 25.4 µM | SN12C 31.2 µM | SR 10.8 µM | SW-620 33.1 µM | TK-10 41.2 µM | U-251 22.5 µM | UACC-62 31 µM

Nc1nc(CCC(=O)Nc2cccc(C(F)(F)F)c2)cc(-c2ccc3ccccc3c2)n1
inactive: 786-0 > 100 µM | CCRF-CEM > 100 µM | DMS-114 > 100 µM | HCT-116 > 100 µM | HOP-62 > 100 µM | K562 > 100 µM | MOLT-4 > 100 µM | NCI-H460 > 100 µM | OVCAR-8 > 100 µM | SF-268 > 100 µM | SF-295 > 100 µM | SK-MEL-28 > 100 µM | SK-OV-3 > 100 µM | SN12C > 100 µM | SR > 100 µM | SW-620 > 100 µM | TK-10 > 100 µM | U-251 > 100 µM | UACC-62 > 100 µM

COC12CCC(C(C(=O)c3ccccc3)=C1C(=O)c1ccccc1)C(O)C2 (stereo not given)
inactive: 786-0 > 100 µM | CCRF-CEM > 100 µM | DMS-114 > 100 µM | HCT-116 > 100 µM | HOP-62 > 100 µM | K562 > 100 µM | MOLT-4 > 100 µM | OVCAR-8 > 100 µM | SF-268 > 100 µM | SF-295 > 100 µM | SK-MEL-28 > 100 µM | SK-OV-3 > 100 µM | SN12C > 100 µM | SR > 100 µM | SW-620 > 100 µM | TK-10 > 100 µM | UACC-62 > 100 µM

c1ccc2c(C3NCCc4nc[nH]c43)cccc2c1 (stereo not given)
inactive: 786-0 > 100 µM | CCRF-CEM > 100 µM | DMS-114 > 100 µM | HCT-116 > 100 µM | HOP-62 > 100 µM | K562 > 100 µM | MOLT-4 > 100 µM | NCI-H460 > 100 µM | OVCAR-8 > 100 µM | SF-268 > 100 µM | SF-295 > 100 µM | SK-MEL-28 > 100 µM | SK-OV-3 > 100 µM | SN12C > 100 µM | SR > 100 µM | SW-620 > 100 µM | TK-10 > 100 µM | U-251 > 100 µM | UACC-62 > 100 µM

CCCCSC1CCSc2c1ccc1ccccc21 (stereo not given)
inactive: 786-0 > 100 µM | DMS-114 > 100 µM | HCT-116 53 µM | HOP-62 > 100 µM | K562 44.9 µM | MOLT-4 34.3 µM | OVCAR-8 > 100 µM | SF-295 > 100 µM | SK-MEL-28 > 100 µM | SK-OV-3 > 100 µM | SR 72.3 µM | TK-10 > 100 µM | U-251 > 100 µM | UACC-62 > 100 µM

CCOC(=O)C1S/C(=N\c2cccc(Cl)c2C)N=C1C (stereo not given)
inactive: 786-0 16.1 µM | DMS-114 30.4 µM | HCT-116 22.8 µM | HOP-62 80 µM | K562 34.1 µM | MOLT-4 29.7 µM | NCI-H460 33 µM | OVCAR-8 21.3 µM | SF-268 30.5 µM | SF-295 18.8 µM | SK-MEL-28 40 µM | SN12C 18.8 µM | SR 24.7 µM | SW-620 28.4 µM | TK-10 35.6 µM | U-251 15.1 µM

CC12CCC(=O)N1c1cc([N+](=O)[O-])ccc1N2 (stereo not given)
inactive: 786-0 > 100 µM | CCRF-CEM > 100 µM | DMS-114 > 100 µM | HCT-116 > 100 µM | HOP-62 > 100 µM | K562 > 100 µM | MOLT-4 > 100 µM | OVCAR-8 > 100 µM | SF-268 > 100 µM | SF-295 > 100 µM | SK-MEL-28 > 100 µM | SK-OV-3 > 100 µM | SN12C > 100 µM | SR 76 µM | SW-620 > 100 µM | U-251 > 100 µM | UACC-62 > 100 µM

O=C(NCCCl)SCCO
inactive: 786-0 > 100 µM | CCRF-CEM > 100 µM | DMS-114 > 100 µM | HCT-116 > 100 µM | HOP-62 > 100 µM | K562 > 100 µM | MOLT-4 > 100 µM | NCI-H460 > 100 µM | OVCAR-8 > 100 µM | SF-268 > 100 µM | SF-295 > 100 µM | SK-MEL-28 > 100 µM | SK-OV-3 > 100 µM | SN12C > 100 µM | SR > 100 µM | SW-620 > 100 µM | TK-10 > 100 µM | U-251 > 100 µM | UACC-62 > 100 µM
